Assay results reported in US20180193490A1, “Beta Amyloid Staging” (GE HEALTHCARE LIMITED, priority 2015, published 2018).

Target: T1, beta amyloid (Aβ) plaques in the brain (Homo sapiens, UniProt P05067)
T1 construct: from tissue; host or cells: brain of living subjects (cortex and striatum), in vivo PET
Test: Provisional SUVR analysis of GE067-026 PET images (Cortex ID, cortex and striatal VOIs)
Format: in vivo
Details: for Cases C+S+ by SUVR analysis of cortical and striatal beta amyloid uptake / Cases C+S− by SUVR analysis of cortical and striatal beta amyloid uptake / Cases C−S+ by SUVR analysis of cortical and striatal beta amyloid uptake / Cases C−S− by SUVR analysis of cortical and striatal beta amyloid uptake: SUVRpons thresholds
Procedure: Some work has been performed to assess the quantitative SUVR measures from the GE067-026 cohort.
In an automated SUVR assessment methodology using GE software Cortex ID (J Lilja) PET images were quantitated using separate cortex and striatal VOIs. The SUVRs were determined for the cortical and striatal values using 3 different reference regions; whole cerebellum, cerebellar grey and pons.
Thresholding was determined by multiple methods to identify which method provided the greatest accuracy (See Setting SUVR thresholds)
The thresholds determined by ROC analysis for Phase 3 or above being abnormal gave the best sensitivity and specificity for cortical assessments. A similar approach gave the best sensitivity and specificity for the striatal assessments. Using the whole cerebellum as a reference region or pons as the reference region gave the best sensitivity and specificity (see Table 4).
Combining these thresholds to determine cortical and striatal positivity based upon SUVRpons values gave similar results to those see by BIE assessment. Of 5 C+S− cases 3 […] were Thal phase 3.
SUVR thresholds were set using two methods. • (1) Statistical determination • (2) Receiver operator characteristics
For statically determined thresholds the algorithm depicted in FIG. 1 was applied. Briefly, all cases were identified as negative or positive based on histopathology. For the cortex this was based on the GE067-026 standard of truth^2—abnormal or normal based on any regional Bielschowsky score>1.5=abnormal and all regional scores≤1.5=normal. For the striatum this was based on the identification of “Frequent” plaques by amyloid-β IHC (4G8). The threshold determinations are calculated in the file Cortex ID SUVR thresholds.xlsx. ^2 For the GE067-007 and -026 autopsy trials the primary endpoint was Bielschowsky silver stain (BSS) scores of CERAD based neuritic plaque density. 0=none, 1=sparse, 2=moderate and 3=frequent. Multiple measures were averaged and the arithmetic mean between none/sparse (normal) and moderate/frequent (abnormal=1.5. Any case with a regional BSS score>1.5 was deemed abnormal.
The SUVR means and standard deviations were calculated for normal and abnormal subjects for each of the SUVR measures; Cortex and striatum and for each of the SUVR reference regions. The threshold was determined to be the SUVR value at which the fractional standard deviation is equal between the two population means i.e. when the normal mean plus y times the normal SD is equal to the abnormal mean minus y times the abnormal SD.
A statistically based threshold was determined for abnormal and normal cases (based on histopathology) and applied to cortical and striatal SUVRs separately.
A variant of the above threshold was determined based upon the Thal phases. Thus the threshold for the cortex and striatum was determined between phase 0 and 1, between phase 1 and phase 2 . . . etc. This gave 15 threshold values (5 to discriminate each phase and 1 for each of the 3 reference regions; 15 in total)
This is an empirically determined threshold that by definition identifies the threshold that gives the best sensitivity and specificity.
Receiver operator characteristics analysis determines the sensitivity and specificity given a variable threshold. The most appropriate threshold is then determined by the maximum of the sum of the sensitivity and specificity.

T1 sequence (P05067 672-713 limits assumed): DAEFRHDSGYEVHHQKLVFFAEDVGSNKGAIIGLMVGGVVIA

With `CNc1ccc(-c2nc3ccc(O)cc3s2)cc1F` [Flutemetamol] the “Cases C+S+ by SUVR analysis of cortical and striatal beta amyloid uptake” value (shortened to “Cases C+S+ by SUVR analysis”) (Amyloid Thal phase 0) was 0, the “Cases C+S− by SUVR analysis of cortical and striatal beta amyloid uptake” value (“Cases C+S− by SUVR analysis” for short) (Amyloid Thal phase 0) was 0 and the “Cases C−S+ by SUVR analysis of cortical and striatal beta amyloid uptake” value (“Cases C−S+ by SUVR analysis” below) (Amyloid Thal phase 0) was 0. For the same compound, the “Cases C−S− by SUVR analysis of cortical and striatal beta amyloid uptake” value (shortened to “Cases C−S− by SUVR analysis”) (Amyloid Thal phase 0) was 7, the “Cases C+S+ by SUVR analysis” value (Amyloid Thal phase 1) was 0 and the “Cases C+S− by SUVR analysis” value (Amyloid Thal phase 1) was 0. The “Cases C−S+ by SUVR analysis” value (Amyloid Thal phase 1) was 0, the “Cases C−S− by SUVR analysis” value (Amyloid Thal phase 1) was 8 and the “Cases C+S+ by SUVR analysis” value (Amyloid Thal phase 2) was 0. The “Cases C+S− by SUVR analysis” value (Amyloid Thal phase 2) was 0, the “Cases C−S+ by SUVR analysis” value (Amyloid Thal phase 2) was 0 and the “Cases C−S− by SUVR analysis” value (Amyloid Thal phase 2) was 5. The “Cases C+S+ by SUVR analysis” value (Amyloid Thal phase 3) was 1, the “Cases C+S− by SUVR analysis” value (Amyloid Thal phase 3) was 3 and the “Cases C−S+ by SUVR analysis” value (Amyloid Thal phase 3) was 0. For the same compound, the “Cases C−S− by SUVR analysis” value (Amyloid Thal phase 3) was 8, the “Cases C+S+ by SUVR analysis” value (Amyloid Thal phase 4) was 16 and the “Cases C+S− by SUVR analysis” value (Amyloid Thal phase 4) was 1. The “Cases C−S+ by SUVR analysis” value (Amyloid Thal phase 4) was 2, the “Cases C−S− by SUVR analysis” value (Amyloid Thal phase 4) was 3 and the “Cases C+S+ by SUVR analysis” value (Amyloid Thal phase 5) was 44. For the same compound, the “Cases C+S− by SUVR analysis” value (Amyloid Thal phase 5) was 1, the “Cases C−S+ by SUVR analysis” value (Amyloid Thal phase 5) was 0 and the “Cases C−S− by SUVR analysis” value (Amyloid Thal phase 5) was 1. For the same compound, the “Sum of sensitivity and specificity” value (Average over all thresholds, reference region Cer) was 163%, the “Sum of sensitivity and specificity” value (Average over all thresholds, reference region Pons) was 168% and the “Sum of sensitivity and specificity” value (Average over all thresholds, reference region Wcer) was 168%. For the same compound, the “Phase 3 cases identified as C+S− between the two methods (BIE and SUVR)” value (BIE and SUVR combined) was 6, the “Sum of sensitivity and specificity” value (CTX BSS ROC abnormality threshold, Average of reference regions) was 177% and the “Sum of sensitivity and specificity” value (CTX BSS ROC abnormality threshold, reference region Cer) was 176%. The “Sum of sensitivity and specificity” value (CTX BSS ROC abnormality threshold, reference region Pons) was 174%, the “Sum of sensitivity and specificity” value (CTX BSS ROC abnormality threshold, reference region Wcer) was 180% and the “Sum of sensitivity and specificity” value (CTX Max Mirra ROC abnormality threshold, Average of reference regions) was 170%. The “Sum of sensitivity and specificity” value (CTX Max Mirra ROC abnormality threshold, reference region Cer) was 170%, the “Sum of sensitivity and specificity” value (CTX Max Mirra ROC abnormality threshold, reference region Pons) was 167% and the “Sum of sensitivity and specificity” value (CTX Max Mirra ROC abnormality threshold, reference region Wcer) was 173%. For the same compound, the “Sum of sensitivity and specificity” value (CTX Mirra mode ROC abnormality threshold, Average of reference regions) was 172%, the “Sum of sensitivity and specificity” value (CTX Mirra mode ROC abnormality threshold, reference region Cer) was 170% and the “Sum of sensitivity and specificity” value (CTX Mirra mode ROC abnormality threshold, reference region Pons) was 173%. The “Sum of sensitivity and specificity” value (CTX Mirra mode ROC abnormality threshold, reference region Wcer) was 174%, the “Sum of sensitivity and specificity” value (CTX Phase1 threshold, Average of reference regions) was 139% and the “Sum of sensitivity and specificity” value (CTX Phase1 threshold, reference region Cer) was 142%. For the same compound, the “Sum of sensitivity and specificity” value (CTX Phase1 threshold, reference region Pons) was 129%, the “Sum of sensitivity and specificity” value (CTX Phase1 threshold, reference region Wcer) was 145% and the “Sum of sensitivity and specificity” value (CTX Phase2 threshold, Average of reference regions) was 155%. The “Sum of sensitivity and specificity” value (CTX Phase2 threshold, reference region Cer) was 153%, the “Sum of sensitivity and specificity” value (CTX Phase2 threshold, reference region Pons) was 158% and the “Sum of sensitivity and specificity” value (CTX Phase2 threshold, reference region Wcer) was 152%. For the same compound, the “Sum of sensitivity and specificity” value (CTX Phase 3 + ROC abnormality threshold, Average of reference regions) was 183%, the “Sum of sensitivity and specificity” value (CTX Phase 3 + ROC abnormality threshold, reference region Cer) was 180% and the “Sum of sensitivity and specificity” value (CTX Phase 3 + ROC abnormality threshold, reference region Pons) was 186%. The “Sum of sensitivity and specificity” value (CTX Phase 3 + ROC abnormality threshold, reference region Wcer) was 182%, the “Sum of sensitivity and specificity” value (CTX Phase3 threshold, Average of reference regions) was 161% and the “Sum of sensitivity and specificity” value (CTX Phase3 threshold, reference region Cer) was 153%. The “Sum of sensitivity and specificity” value (CTX Phase3 threshold, reference region Pons) was 166%, the “Sum of sensitivity and specificity” value (CTX Phase3 threshold, reference region Wcer) was 166% and the “Sum of sensitivity and specificity” value (CTX Phase 4 + ROC abnormality threshold, Average of reference regions) was 179%. For the same compound, the “Sum of sensitivity and specificity” value (CTX Phase 4 + ROC abnormality threshold, reference region Cer) was 176%, the “Sum of sensitivity and specificity” value (CTX Phase 4 + ROC abnormality threshold, reference region Pons) was 182% and the “Sum of sensitivity and specificity” value (CTX Phase 4 + ROC abnormality threshold, reference region Wcer) was 180%. For the same compound, the “Sum of sensitivity and specificity” value (CTX Phase4 threshold, Average of reference regions) was 177%, the “Sum of sensitivity and specificity” value (CTX Phase4 threshold, reference region Cer) was 173% and the “Sum of sensitivity and specificity” value (CTX Phase4 threshold, reference region Pons) was 179%. For the same compound, the “Sum of sensitivity and specificity” value (CTX Phase4 threshold, reference region Wcer) was 179%, the “Sum of sensitivity and specificity” value (CTX Phase5 threshold, Average of reference regions) was 136% and the “Sum of sensitivity and specificity” value (CTX Phase5 threshold, reference region Cer) was 132%. For the same compound, the “Sum of sensitivity and specificity” value (CTX Phase5 threshold, reference region Pons) was 142%, the “Sum of sensitivity and specificity” value (CTX Phase5 threshold, reference region Wcer) was 133% and the “Sum of sensitivity and specificity” value (CTX abnormality statistical threshold, Average of reference regions) was 176%. For the same compound, the “Sum of sensitivity and specificity” value (CTX abnormality statistical threshold, reference region Cer) was 174%, the “Sum of sensitivity and specificity” value (CTX abnormality statistical threshold, reference region Pons) was 175% and the “Sum of sensitivity and specificity” value (CTX abnormality statistical threshold, reference region Wcer) was 180%. For the same compound, the “Sum of sensitivity and specificity” value (STR Phase1 threshold, Average of reference regions) was 144%, the “Sum of sensitivity and specificity” value (STR Phase1 threshold, reference region Cer) was 135% and the “Sum of sensitivity and specificity” value (STR Phase1 threshold, reference region Pons) was 147%. For the same compound, the “Sum of sensitivity and specificity” value (STR Phase1 threshold, reference region Wcer) was 150%, the “Sum of sensitivity and specificity” value (STR Phase2 threshold, Average of reference regions) was 138% and the “Sum of sensitivity and specificity” value (STR Phase2 threshold, reference region Cer) was 135%. The “Sum of sensitivity and specificity” value (STR Phase2 threshold, reference region Pons) was 135%, the “Sum of sensitivity and specificity” value (STR Phase2 threshold, reference region Wcer) was 144% and the “Sum of sensitivity and specificity” value (STR Phase3 threshold, Average of reference regions) was 173%. The “Sum of sensitivity and specificity” value (STR Phase3 threshold, reference region Cer) was 164%, the “Sum of sensitivity and specificity” value (STR Phase3 threshold, reference region Pons) was 178% and the “Sum of sensitivity and specificity” value (STR Phase3 threshold, reference region Wcer) was 179%. The “Sum of sensitivity and specificity” value (STR Phase4 threshold, Average of reference regions) was 183%, the “Sum of sensitivity and specificity” value (STR Phase4 threshold, reference region Cer) was 180% and the “Sum of sensitivity and specificity” value (STR Phase4 threshold, reference region Pons) was 186%. For the same compound, the “Sum of sensitivity and specificity” value (STR Phase4 threshold, reference region Wcer) was 183%, the “Sum of sensitivity and specificity” value (STR Phase5 threshold, Average of reference regions) was 158% and the “Sum of sensitivity and specificity” value (STR Phase5 threshold, reference region Cer) was 151%. The “Sum of sensitivity and specificity” value (STR Phase5 threshold, reference region Pons) was 165%, the “Sum of sensitivity and specificity” value (STR Phase5 threshold, reference region Wcer) was 157% and the “Sum of sensitivity and specificity” value (STR ROC abnormality threshold, Average of reference regions) was 187%. For the same compound, the “Sum of sensitivity and specificity” value (STR ROC abnormality threshold, reference region Cer) was 185%, the “Sum of sensitivity and specificity” value (STR ROC abnormality threshold, reference region Pons) was 188% and the “Sum of sensitivity and specificity” value (STR ROC abnormality threshold, reference region Wcer) was 187%. For the same compound, the “Sum of sensitivity and specificity” value (STR abnormality statistical threshold, Average of reference regions) was 184%, the “Sum of sensitivity and specificity” value (STR abnormality statistical threshold, reference region Cer) was 182% and the “Sum of sensitivity and specificity” value (STR abnormality statistical threshold, reference region Pons) was 187%. The “Sum of sensitivity and specificity” value (STR abnormality statistical threshold, reference region Wcer) was 185%, the “Share of C+S− cases that were Thal phase 3” value (SUVRpons values) was 66% and the “C+S− cases by SUVR thresholds” value (SUVRpons values, all Thal phases) was 5. The “Thal phase 3 C+S− cases by SUVR analysis in common with those identified by BIE assessment” value (of the 3 Thal phase 3 C+S− cases by SUVR) was “two”.
